Laboratory results from US8324199B2, “Pyridazine derivatives as factor xia inhibitors” (Bristol-Myers Squibb Company, priority 2008, dated 2012).

molecular target: T1, purified human Factor XIa (Homo sapiens, UniProt P03951); test: Factor XIa assay (chromogenic substrate hydrolysis, Ki); assay type: biochemical; details: purified human Factor XIa 75-200 pM, substrate S-2366, 50 mM HEPES pH 7.4
T1 construct: purchased Haematologic Technologies
Procedure: The effectiveness of compounds of the present invention as inhibitors of the coagulation factors XIa, VIIa, IXa, Xa, XIIa, plasma kallikrein or thrombin, can be determined using a relevant purified serine protease, respectively, and an appropriate synthetic substrate. The rate of hydrolysis of the chromogenic or fluorogenic substrate by the relevant serine protease was measured both in the absence and presence of compounds of the present invention. […] A decrease in the rate of absorbance or fluorescence change in the presence of inhibitor is indicative of enzyme inhibition. Such methods are known to one skilled in the art. The results of this assay are expressed as the inhibitory constant, Ki.
Factor XIa determinations were made in 50 mM HEPES buffer at pH 7.4 containing 145 mM NaCl, 5 mM KCl, and 0.1% PEG 8000 (polyethylene glycol; JT Baker or Fisher Scientific). Determinations were made using purified human Factor XIa at a final concentration of 75-200 pM (Haematologic Technologies) and the synthetic substrate S-2366 (pyroGlu-Pro-Arg-pNA; Chromogenix or AnaSpec) at a concentration of 0.0002-0.001 M.
The Michaelis constant, Km, for substrate hydrolysis by each protease, was determined at 25° C. using the method of Lineweaver and Burk. Values of Ki were determined by allowing the protease to react with the substrate in the presence of the inhibitor. Reactions were allowed to go for periods of 20-180 minutes (depending on the protease) and the velocities (rate of absorbance or fluorescence change versus time) were measured. The following relationships were used to calculate Ki values: (vo−vs)/vs=I/(Ki(1+S/Km)) for a competitive inhibitor with one binding site; or vs/vo=A+((B−A)/1+((IC50/(I)^n))); and Ki=IC50/(1+S/Km) for a competitive inhibitor where: […]

T1 sequence (P03951 388-625 limits assumed): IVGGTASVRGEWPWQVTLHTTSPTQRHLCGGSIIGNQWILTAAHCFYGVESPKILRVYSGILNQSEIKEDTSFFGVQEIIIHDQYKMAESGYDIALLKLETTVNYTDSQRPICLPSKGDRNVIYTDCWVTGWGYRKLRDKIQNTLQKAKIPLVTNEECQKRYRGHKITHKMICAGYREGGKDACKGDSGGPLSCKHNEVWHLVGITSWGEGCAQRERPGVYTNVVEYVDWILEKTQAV
T1 sequence (P03951 19-387 partner limits assumed): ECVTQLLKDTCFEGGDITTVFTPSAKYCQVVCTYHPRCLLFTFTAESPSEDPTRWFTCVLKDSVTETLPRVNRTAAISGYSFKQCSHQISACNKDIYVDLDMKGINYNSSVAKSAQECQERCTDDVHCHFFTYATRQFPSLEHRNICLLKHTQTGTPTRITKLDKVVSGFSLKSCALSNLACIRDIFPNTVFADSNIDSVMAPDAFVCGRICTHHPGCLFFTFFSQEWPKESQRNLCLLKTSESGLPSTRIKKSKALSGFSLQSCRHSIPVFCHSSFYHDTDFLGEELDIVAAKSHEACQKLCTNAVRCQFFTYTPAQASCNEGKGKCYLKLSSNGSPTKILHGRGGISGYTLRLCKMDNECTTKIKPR

Structure (SMILES) | Ki [nM]
COC(=O)Nc1ccc(-c2cc(C(Cc3ccccc3)NC(=O)/C=C/c3cc(Cl)ccc3-n3ccnc3)c(Cl)nn2)cc1 (racemic) [Example 8, (±)-(E)-Methyl 4-(6-chloro-5-(1-(3-(5-chloro-2-(1H-imidazol-1-yl)phenyl)acrylamido)-2-phenylethyl)pyridazin-3-yl)phenylcarbamate] | 1160
COC(=O)Nc1ccc(-c2cc(C(C)NC(=O)/C=C/c3cc(Cl)ccc3-n3cnnn3)c(Cl)nn2)cc1 (racemic) [Example 11, (±)-(E)-Methyl 4-(6-chloro-5-(1-(3-(5-chloro-2-(1H-tetrazol-1-yl)phenyl)acrylamido)ethyl)pyridazin-3-yl)phenylcarbamate] | 52
Nc1ccc(-c2cc(C(Cc3ccccc3)NC(=O)/C=C/c3cc(Cl)ccc3-n3cnnn3)c(Cl)nn2)cn1 (racemic) [Example 36, (±)-(E)-N-(1-(6-(6-Aminopyridin-3-yl)-3-chloropyridazin-4-yl)-2-phenylethyl)-3-(5-chloro-2-(1H-tetrazol-1-yl)phenyl)acrylamide] | 20
COC(=O)Nc1ccc(-c2cc(C(Cc3ccccc3)NC(=O)/C=C/c3cc(Cl)ccc3-n3cnnn3)c(Cl)nn2)cc1 (single isomer, unassigned) [Example 2, (E)-Methyl 4-(6-chloro-5-(1-(3-(5-chloro-2-(1H-tetrazol-1-yl)phenyl)acrylamido)-2-phenylethyl)pyridazin-3-yl)phenylcarbamate] | 2
COC(=O)Nc1ccc(-c2cc(C(Cc3ccccc3)NC(=O)/C=C/c3cc(Cl)ccc3-n3cnnn3)c(Cl)nn2)cc1 (single isomer, unassigned) [Example 3, (E)-Methyl 4-(6-chloro-5-(1-(3-(5-chloro-2-(1H-tetrazol-1-yl)phenyl)acrylamido)-2-phenylethyl)pyridazin-3-yl)phenylcarbamate] | 630
COC(=O)Nc1ccc(-c2cc(C(CC(=O)OC(C)(C)C)NC(=O)/C=C/c3cc(Cl)ccc3-n3cnnn3)c(Cl)nn2)cc1 (single isomer, unassigned) [Example 20, (E)-tert-Butyl 3-(3-(5-chloro-2-(1H-tetrazol-1-yl)phenyl)acrylamido)-3-(3-chloro-6-(4-(methoxycarbonylamino)phenyl)pyridazin-4-yl)propanoate] | 2.9
COC(=O)Nc1ccc(-c2cc(C(CC(=O)N3CCN(C)CC3)NC(=O)/C=C/c3cc(Cl)ccc3-n3cnnn3)c(Cl)nn2)cc1 (single isomer, unassigned) [Example 27, (E)-Methyl 4-(6-chloro-5-(1-(3-(5-chloro-2-(1H-tetrazol-1-yl)phenyl)acrylamido)-3-(4-methylpiperazin-1-yl)-3-oxopropyl)pyridazin-3-yl)phenylcarbamate] | 4
COC(=O)Nc1ccc(-c2cc([C@H](CC3CCCNC3)NC(=O)/C=C/c3cc(Cl)ccc3-n3cnnn3)nnc2Cl)cc1 (single isomer, unassigned) [Example 99] | 746
COC(=O)Nc1ccc(-c2cc([C@H](CC3CCCN(C(=O)C(C)C)C3)NC(=O)/C=C/c3cc(Cl)ccc3-n3cnnn3)nnc2Cl)cc1 (single isomer, unassigned) [Example 118] | 55
COC(=O)Nc1ccc(-c2cc([C@H](Cc3ccccc3)NC(=O)/C=C/c3cc(Cl)ccc3-n3cnnn3)nn(C)c2=O)cc1 [Example 40, (S,E)-Methyl 4-(6-(1-(3-(5-chloro-2-(1H-tetrazol-1-yl)phenyl)acrylamido)-2-phenylethyl)-2-methyl-3-oxo-2,3-dihydropyridazin-4-yl)phenylcarbamate] | 156
CCOC(=O)Nc1ccc(-c2cc([C@H](Cc3ccccc3)NC(=O)/C=C/c3cc(Cl)ccc3-n3cnnn3)nnc2OCC)cc1 [Example 51, (S,E)-Ethyl 4-(6-(1-(3-(5-chloro-2-(1H-tetrazol-1-yl)phenyl)acrylamido)-2-phenylethyl)-3-ethoxypyridazin-4-yl)phenylcarbamate] | 405
